# Results reported in US9140705B2, “Tumor suppressor killin” (Vanderbilt University, priority 2005, dated 2015).
# B1: Killin: novel 20 kDa basic nuclear DNA binding protein of 178 amino acids (SEQ ID NO:1), p53 target gene product (protein, listed as Homo sapiens)
# chain: MDRPGPGSARPGRTVHVWGYRVEWKVRNGRKLQPSEWAGRGDLGGFKRRWKDTRATVGTTFRRRSRVSLVGELSKFPLPSDSSGGKSSSSFARGALAWCRQRNPNPSCAAAETGARTSLPKERCRGWRLGNWLHKHPHPNTCPRLPACWLPPILTERGERVPKLVPLLACYPKSKPKD
# B2: 6×HIS-tagged Killin: bacterially expressed full-length N-terminal His-tagged Killin (pQE32 vector) (protein, UniProt B2CW77 1-178, looked up)
# chain: B1 chain
# modifications: full-length N-terminal His6 tag
# B3: N-terminal 123 amino acids: Killin coding region truncated at unique Eco41III site, N-terminal part (protein, UniProt B2CW77 1-123, looked up, fragment)
# chain: MDRPGPGSARPGRTVHVWGYRVEWKVRNGRKLQPSEWAGRGDLGGFKRRWKDTRATVGTTFRRRSRVSLVGELSKFPLPSDSSGGKSSSSFARGALAWCRQRNPNPSCAAAETGARTSLPKER
# What was measured:
# E. coli = experiment: Bacterial expression / toxicity (colony formation) of Killin and truncated Killin; assay type: cell-based; conditions: for toxicity to E. coli (colony formation in the absence of transcriptional repression): pQE32 plasmids expressing truncated Killin
# Description: Mutagenesis experiments were performed using EMS (ethylmethanesulfonate) (Sigma) as described previously with minor modification. Exponentially growing XL-1 blue with pQE32-Killin was harvested by centrifugation, washed, and resuspended in minimal A buffer (10.5 g of K2HPO4, 4.5 g of KH2PO4, 1 g of [NH4]2SO4, and 0.5 g of sodium citrate:2H2O in 1 liter). EMS was added to the cells at a concentration of 140 μM for 1 hour during continuous shaking at 37° C. After washing with minimal A buffer, cells was diluted 1:10 in LB medium and grown for 6 hrs at 37° C. before mutagenized plasmids were purified and transformed into either GH1 (without repression, GenHunter) or XL-1 blue (with repression, Stratagene) competent cells. Ampicilin resistant colonies were scored after an overnight incubation.
# For deletion analysis, PCR was performed to amplify different regions of Killin as specified. PCR primer sequences used for the deletions are listed below:
# The obtained PCR products were first cloned into PCR-TRAP cloning vector and then subcloned as BglII fragments into the BamHI site of the pQE32 6XHIS-tag expression vector (Qiagen). The expression vectors were transformed into XL-1 blue under transcription repression for the transgene (−IPTG). […] As a negative control, all vectors were simultaneously transformed into XL-1 blue cells, which gave near confluent transformants under transcription repression for all constructs. Similar deletion constructs were also made as GFP fusion protein as described above and transiently transfected into the H1299 cells to visualized their ability to cause cell apoptosis based on nuclear chromosome condensation.
# double-stranded DNA = experiment: In vitro DNA binding assay (gel shift, 32P-end labeled probes), double-stranded DNA template; conditions: 32P-end labeled oligo nucleotide probes, read-out: apparent Kd
# Description: (§1) In vitro transcribed and translated Killin cloned into pcDNA3.1 (Invitrogen) (K), or vector alone (V) were labeled with ^35S using Translabel (ICN) and a TnT kit (Promega). The labeled Killin and vector control were incubated with either single-stranded (ss) or double-stranded (ds) DNA cellulose (Sigma). After washing with PBS, bound proteins were resolved on a 15% SDS-PAGE gel, dried onto as 3M paper before autoradiography. For peptide binding, 42 as of Killin/N8-50 peptide (MW: 5007 dalton) was synthesized and verified with mass spec by Sigma-Genosys at a purity of at least 70%. The peptide was dissolved in PBS as 1 mg/mL stock solution before use, For in vitro DNA binding assay, 3 primers (32-35 bases in length) with arbitrary sequences were designed:
# (§2) After annealing, probes for artificial replication fork (LL and RL) or double-stranded DNA template (LL and RLM) were end-labeled with α-^32P-dATP (Perkin-Elmer) using Klenow (New England Biolab). Single-stranded oligonucleotide (LL) was end-labeled with […] (Perkin-Elmer) using T4 polynucleotide kinase (New England Biolab). […] For binding kinetics, bands from DNA-peptide complex were excised and the radioactivity was determined by scintillation counting. […]
# [1] = biological target: artificial replication fork; experiment: In vitro DNA binding assay (gel shift, 32P-end labeled probes), artificial replication fork; conditions: 32P-end labeled oligo nucleotide probes, read-out: apparent Kd
# Description: as §1, §2
# single-stranded DNA = experiment: In vitro DNA binding assay (gel shift, 32P-end labeled probes), single-stranded DNA template; conditions: 32P-end labeled oligo nucleotide probe, read-out: apparent Kd
# Description: as §1, §2
# [2] = tested on: SV40 origin (ori) of replication-dependent in vitro DNA replication; experiment: In vitro SV40 DNA replication assay; assay type: biochemical, simian virus 40 (SV40); conditions: peptide 1 to 16 μM; HEK293T nuclear extract as source of SV40 large T antigen
# Description: The SV40 origin (ori) of replication-dependent in vitro DNA replication was carried out essentially as described previously (L1 and Kelly, 1984) with minor modifications. Briefly, the source of SV40 large T antigen was from HEK293T cells (GenHunter). The SV40 ori-containing plasmid vector pAPtag-2 (GenHunter) and a negative control vector pUC18 that lacks SV40 ori were used as templates for the in vitro DNA replication assays. 10 ng of nuclear protein extracts and 250 ng of plasmid DNA template were used for each assay. Nascent DNA synthesis in the absence and presence of Killin/N8-50 peptide after ^32P-α-dATP labeling was analyzed on a 6% TBE PAGE gel, dried onto a 3 M paper (Whatman) and visualize by autoradiography.
# To determine if Killin/N8-50 peptide binding to DNA has any consequences in DNA replication, the inventors employed the commonly used in vitro eukayotic DNA replication assays originally described by L1 and Kelly (1984). This assay uses soluble cell-free system derived from mammalian cell nuclear extract that is capable of replicating exogenous plasmid DNA molecules containing the simian virus 40 (SV40) origin of replication. Replication in the system is completely dependent upon the addition of the SV40 large T antigen. […]
# [3] = tested on: single-stranded (ss) DNA cellulose; experiment: DNA cellulose binding of in vitro transcribed and translated 35S-labeled Killin, single-stranded; conditions: washed with PBS
# Description: as §1, with “designed: […]” for “designed:”
# [4] = tested on: double-stranded (ds) DNA cellulose; experiment: DNA cellulose binding of in vitro transcribed and translated 35S-labeled Killin, double-stranded; conditions: washed with PBS
# Description: as §1, with “designed: […]” for “designed:”
molecule,measurement,setting,value
"C-terminal 124-178 amino acid residues: Killin coding region truncated at unique Eco41III site, C-terminal part (CRGWRLGNWLHKHPHPNTCPRLPACWLPPILTERGERVPKLVPLLACYPKSKPKD; UniProt B2CW77 124-178, looked up, fragment)",toxicity to E. coli (colony formation in the absence of transcriptional repression),E. coli,able to transform E. coli into colonies
"Killin/N8-50: chemically synthesized peptide of 42 amino acid residues corresponding to N8-50 of Killin (SARPGRTVHVWGYRVEWKVRNGRKLQPSEWAGRGDLGGFKRRW; UniProt B2CW77 8-50, looked up, fragment)",Kd,double-stranded DNA,1000 nM
same,Kd,[1],1000 nM
same,Kd,single-stranded DNA,500 nM
same,inhibition of DNA replication in vitro,[2],greatly inhibit DNA replication
B1,binding to DNA template,[3],able to bind
same,binding to DNA template,[4],able to bind
B2,time to growth arrest of the bacteria hosts after IPTG induction,"E. coli; bacterial expression, induction by IPTG",≤ 30 min
B3,toxicity to E. coli (colony formation in the absence of transcriptional repression),E. coli,sufficient to retain toxicity to E. coli
